This is an account of results in the supplement of paper PMC10307832.

Holding throughout (test): relative viability (nuclei count vs DMSO), 5 days (fraction); higher = more cells survive
Compound in the experiment “Quizartinib + AZD7762”: CC(C)(C)c1cc(NC(=O)Nc2ccc(-c3cn4c(n3)sc3cc(OCCN5CCOCC5)ccc34)cc2)no1 [Quizartinib] + NC(=O)Nc1cc(-c2cccc(F)c2)sc1C(=O)N[C@H]1CCCNC1 [AZD7762] (partner 0.2 µM)
The method, boiled down: (§1)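 Lung cancer cell lines were seeded in 1536-well plates and dosed by pin tool the next day, with either a single drug or a fixed anchor-drug dose combined with five library-drug doses (not always all listed) spaced in √10 steps. Five days later, one step fixed the cells and stained their nuclei (final 0.05% Triton X-100, 1% formaldehyde, 1 ug/ml Hoechst), and nuclei were counted on 4× images. Relative viability is the nuclei count in treated wells divided by the count in vehicle wells, and each value is the median of duplicate plates.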

Compound in the experiment “Quizartinib + OSI-027”: CC(C)(C)c1cc(NC(=O)Nc2ccc(-c3cn4c(n3)sc3cc(OCCN5CCOCC5)ccc34)cc2)no1 [Quizartinib] + COc1cccc2cc(-c3nc([C@H]4CC[C@H](C(=O)O)CC4)n4ncnc(N)c34)[nH]c12 [OSI-027] (partner 0.5 µM)
The method, boiled down: as §1

Compound in the experiment “Quizartinib + Tozasertib”: CC(C)(C)c1cc(NC(=O)Nc2ccc(-c3cn4c(n3)sc3cc(OCCN5CCOCC5)ccc34)cc2)no1 [Quizartinib] + Cc1cc(Nc2cc(N3CCN(C)CC3)nc(Sc3ccc(NC(=O)C4CC4)cc3)n2)n[nH]1 [Tozasertib] (partner 0.1 µM)
The method in brief:
as §1

Compound in the experiment “YM155 + Alpelisib”: COCC[n+]1c2c(n(Cc3cnccn3)c1C)C(=O)c1ccccc1C2=O [YM155] + Cc1nc(NC(=O)N2CCC[C@H]2C(N)=O)sc1-c1ccnc(C(C)(C)C(F)(F)F)c1 [Alpelisib] (partner 2 µM)
The method in brief:
as §1

Turning to LCLC-103H, the relative viability in the experiment with Quizartinib + AZD7762 (first compound 0.001 µM) turned out to be 0.664; with Quizartinib + AZD7762 (first compound 0.003162 µM) it was 0.701; with Quizartinib + AZD7762 (first compound 0.01 µM) it was 0.746; with Quizartinib + AZD7762 (first compound 0.03162 µM), 0.866; with Quizartinib + AZD7762 (first compound 0.1 µM), 0.829; in the experiment with Quizartinib + OSI-027 (first compound 0.001 µM), 0.432. The relative viability was determined as 0.503 with Quizartinib + OSI-027 (first compound 0.003162 µM); 0.422 with Quizartinib + OSI-027 (first compound 0.01 µM); 0.475 with Quizartinib + OSI-027 (first compound 0.03162 µM); 0.487 with Quizartinib + OSI-027 (first compound 0.1 µM); 0.391 in the experiment with Quizartinib + Tozasertib (first compound 0.001 µM); 0.47 in the experiment with Quizartinib + Tozasertib (first compound 0.003162 µM). Further, the relative viability with Quizartinib + Tozasertib (first compound 0.01 µM) was 0.441; with Quizartinib + Tozasertib (first compound 0.03162 µM), 0.491; with Quizartinib + Tozasertib (first compound 0.1 µM), 0.522; with YM155 + Alpelisib (first compound 0.002 µM), 1; with YM155 + Alpelisib (first compound 0.006325 µM) it was 0.997; with YM155 + Alpelisib (first compound 0.02 µM), 0.946. In the experiment with YM155 + Alpelisib (first compound 0.06325 µM), the relative viability worked out at 1.09.

For NCI-H520, the relative viability with Quizartinib + OSI-027 (first compound 0.001 µM) turned out to be 0.245; in the experiment with Quizartinib + OSI-027 (first compound 0.003162 µM), 0.231; with Quizartinib + OSI-027 (first compound 0.01 µM) it was 0.292; with Quizartinib + OSI-027 (first compound 0.03162 µM) it was 0.233; in the experiment with Quizartinib + OSI-027 (first compound 0.1 µM), 0.272; in the experiment with Quizartinib + Tozasertib (first compound 0.001 µM) it was 0.347. The relative viability in the experiment with Quizartinib + Tozasertib (first compound 0.003162 µM) was 0.448; with Quizartinib + Tozasertib (first compound 0.01 µM), 0.444; in the experiment with Quizartinib + Tozasertib (first compound 0.03162 µM), 0.393; with Quizartinib + Tozasertib (first compound 0.1 µM), 0.385; in the experiment with YM155 + Alpelisib (first compound 0.002 µM), 0.858; with YM155 + Alpelisib (first compound 0.006325 µM) it was 1. Also, the relative viability with YM155 + Alpelisib (first compound 0.02 µM) was found to be 0.853; in the experiment with YM155 + Alpelisib (first compound 0.06325 µM) it was 0.871.

With NCI-H522, the relative viability with Quizartinib + AZD7762 (first compound 0.001 µM) is 0.849; in the experiment with Quizartinib + AZD7762 (first compound 0.003162 µM), 0.775; with Quizartinib + AZD7762 (first compound 0.01 µM), 0.675; with Quizartinib + AZD7762 (first compound 0.03162 µM), 0.871; with Quizartinib + AZD7762 (first compound 0.1 µM), 0.778; with Quizartinib + OSI-027 (first compound 0.001 µM) it was 0.649. Also, the relative viability amounted to 0.764 with Quizartinib + OSI-027 (first compound 0.003162 µM); 0.694 in the experiment with Quizartinib + OSI-027 (first compound 0.01 µM); 0.702 in the experiment with Quizartinib + OSI-027 (first compound 0.03162 µM); 0.762 in the experiment with Quizartinib + OSI-027 (first compound 0.1 µM); 0.571 with Quizartinib + Tozasertib (first compound 0.001 µM); 0.585 with Quizartinib + Tozasertib (first compound 0.003162 µM). In addition, the relative viability worked out at 0.585 with Quizartinib + Tozasertib (first compound 0.01 µM), 0.559 in the experiment with Quizartinib + Tozasertib (first compound 0.03162 µM) and 0.569 with Quizartinib + Tozasertib (first compound 0.1 µM).

In the case of NCI-H661, the relative viability was 0.66 with Quizartinib + OSI-027 (first compound 0.001 µM); 0.594 in the experiment with Quizartinib + OSI-027 (first compound 0.003162 µM); 0.692 in the experiment with Quizartinib + OSI-027 (first compound 0.01 µM); 0.693 with Quizartinib + OSI-027 (first compound 0.03162 µM); 0.721 with Quizartinib + OSI-027 (first compound 0.1 µM); 0.298 with Quizartinib + Tozasertib (first compound 0.001 µM). In addition, the relative viability was 0.364 with Quizartinib + Tozasertib (first compound 0.003162 µM); 0.352 in the experiment with Quizartinib + Tozasertib (first compound 0.01 µM); 0.359 with Quizartinib + Tozasertib (first compound 0.03162 µM); 0.355 with Quizartinib + Tozasertib (first compound 0.1 µM); 0.637 in the experiment with YM155 + Alpelisib (first compound 0.002 µM); 0.657 with YM155 + Alpelisib (first compound 0.006325 µM). For the same cell line, the relative viability with YM155 + Alpelisib (first compound 0.02 µM) amounted to 0.862; with YM155 + Alpelisib (first compound 0.06325 µM), 0.59.

For NCI-H1299, the relative viability with YM155 + Alpelisib (first compound 0.002 µM) was 0.993; with YM155 + Alpelisib (first compound 0.006325 µM) it was 1.01; with YM155 + Alpelisib (first compound 0.02 µM) it was 1.05; with YM155 + Alpelisib (first compound 0.06325 µM) it was 1.07.

On to NCI-H1563, for which the relative viability in the experiment with Quizartinib + OSI-027 (first compound 0.001 µM) is 0.734; in the experiment with Quizartinib + OSI-027 (first compound 0.003162 µM), 0.701; with Quizartinib + OSI-027 (first compound 0.01 µM), 0.78; with Quizartinib + OSI-027 (first compound 0.03162 µM) it was 0.696; in the experiment with Quizartinib + OSI-027 (first compound 0.1 µM), 0.667; in the experiment with YM155 + Alpelisib (first compound 0.002 µM), 0.916. Moreover, the relative viability with YM155 + Alpelisib (first compound 0.006325 µM) came out at 0.977; with YM155 + Alpelisib (first compound 0.02 µM) it was 0.895; with YM155 + Alpelisib (first compound 0.06325 µM), 0.902.
